Measurements published in ChEMBL document CHEMBL1131795, “The spiroketals containing a benzyloxymethyl moiety at C8 position showed the most potent apoptosis-inducing activity” (1999).

Key:
Format in all cases: functional
Homo sapiens [1] = organism: Homo sapiens; experiment: Cell viability of serum-deprived Jurkat cells were determined, 24 hours after incubation with 20 uM concentration of the compound, by MTT-assay
Homo sapiens [2] = organism: Homo sapiens; experiment: Cell viability of serum-deprived Jurkat cells were determined, 24 hours after incubation with 100 uM concentration of the compound, by MTT-assay
Homo sapiens [3] = organism: Homo sapiens; experiment: Concentration required to cause death of human T cell leukemia Jurkat cell was determined; settings: read-out: LC50 (the source's name)

Compound	Cell viability (Homo sapiens [1]) [%]	Cell viability (Homo sapiens [2]) [%]	CC50 (Homo sapiens [3]) [µM]
C[C@@H]1CCCO[C@]12O[C@H](CO)[C@@H](C)C[C@H]2S(=O)(=O)c1ccccc1	67.1	39	–
COCOC[C@H]1O[C@@]2(CC[C@@H]1C)OCCC[C@H]2C	89.1	81.5	–
C[C@@H]1CCCO[C@@]12CCCCO2	98.6	87.4	–
C[C@@H]1CCCO[C@@]12CC[C@H](C)[C@@H](CO[Si](c1ccccc1)(c1ccccc1)C(C)(C)C)O2	38.2	43	–
C[C@@H]1CCCO[C@@]12CC[C@H](C)[C@@H](CO)O2	86	43.8	–
C[C@@H]1CCCO[C@@]12CC[C@H](C)[C@@H](COCc1ccccc1)O2	1.7	0	14
C[C@@H]1CCCO[C@@]12CC[C@H](C)[C@@H](COC1CCCCO1)O2 (some centres not stated)	84.1	60.1	–
C[C@@H]1CCCO[C@]12O[C@H](CO[Si](c1ccccc1)(c1ccccc1)C(C)(C)C)[C@@H](C)C[C@H]2S(=O)(=O)c1ccccc1	79.5	68.4	–
CC1CC[C@]2(CCCCO2)OC1 (some centres not stated)	97.7	84.6	–
C[C@@H]1CCCO[C@@]12CC[C@H](C)[C@@H](COCOCc1ccccc1)O2	77.9	0.3	32
